Laboratory results reported in US20100022483A1, “Substituted Tetracycline Compounds” (Paratek Pharmaceuticals, Inc., priority 2008, published 2010).
pIC50: −log10 of the molar value. ≈ marks a conversion by molar mass, not a printed value. Like-named read-outs stand apart in the source and are kept apart here.

Experiments:
CHO-K1 cells = assay: in vitro; type: cell-based; settings: Chinese hamster, 24 h
gram positive bacteria = assay: In vitro anti-bacterial activity assay (broth dilution MIC), gram positive bacteria; type: cell-based, S. aureus; settings: for MIC: 18 h
In short: (§1)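 Broth dilution MIC following CLSI M7-A2: compounds serially diluted, log-phase test strains added to final ~5×10^5 CFU/ml, incubated ~18 hours at 35° C in ambient air. Plates read on microplate reader or visually; MIC is lowest concentration inhibiting growth.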

3T3 fibroblast cells = assay: In vitro phototoxicity assay (neutral red; UV light-treated vs dark control plates); type: cell-based; settings: for Photo Toxicity UV Tox50: UV light 50 minutes; for Photo Toxicity Dark Tox50: dark control plate
In short: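 Neutral red viability readout (A535 after EtOH/acetic acid extraction) compares paired plates: one exposed 50 min to UV at 1.6–1.8 mW/cm^2, one held in darkness, both dosed with compound in HBSS and recovered overnight. 3T3 fibroblast cells used; phototoxicity taken as the difference.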

gram negative bacteria = assay: In vitro anti-bacterial activity assay (broth dilution MIC), gram negative bacteria; type: cell-based, E. coli
In short: as §1

in vitro = type: cell-based; settings: Chinese hamster, Cytotox. CHO-K1
[1] = Mammalian cytotoxicity assay (resazurin), COS-1 cells; type: cell-based; settings: African green monkey, read-out: Cytotox. COS-1
In short: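 Resazurin read-out (0.042 mg/ml, 2 h at 37° C. then 30 min dark, room temperature; fluorescence 535/590 nm) follows 24-hour compound exposure of overnight-seeded cells, serially diluted. IC50 is the concentration giving 50% growth inhibition.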

[2] = Staphylococcus aureus, S. aureus MRSA5, read-out: Median MIC's G+ S. aureus MRSA5
[3] = Staphylococcus aureus, S. aureus RN450, read-out: Median MIC's G+ S. aureus RN450
[4] = Streptococcus pneumoniae, S. pneumoniae 157E-Strep, read-out: Median MIC's G+ S. pneumoniae 157E-Strep
[5] = Escherichia coli, 18 h, E. coli D1 209, read-out: Median MIC's G− E. coli D1 209
[6] = Escherichia coli, 18 h, E. coli MG 1655, read-out: Median MIC's G− E. coli MG 1655
[7] = Escherichia coli, ATCC25922, 18 h, E. coli ATCC 25922, read-out: Median MIC's G− E. coli ATCC 25922
[8] = Pseudomonas aeruginosa, 18 h, P. aeruginosa K201 PAO6609, read-out: Median MIC's G− P. aeruginosa K201 PAO6609

CN(C)CCCNC(=O)c1cccc(-c2ccc(O)c3c2C[C@H]2C[C@H]4[C@H](N(C)C)C(O)=C(C(N)=O)C(=O)[C@@]4(O)C(O)=C2C3=O)c1 [J]
pIC50 (CHO-K1 cells): < 4.39 | MIC (gram positive bacteria; [2]): 64 µg/mL (≈ 103 µM) | MIC (gram positive bacteria; [3]): 1 µg/mL (≈ 1.62 µM) | MIC (gram positive bacteria; [4]): 1 µg/mL (≈ 1.62 µM) | Photo Toxicity UV Tox50 (3T3 fibroblast cells): >130.13 µM | Photo Toxicity Dark Tox50 (3T3 fibroblast cells): >130.13 µM | MIC (gram negative bacteria; [5]): 64 µg/mL (≈ 103 µM) | MIC (gram negative bacteria; [6]): 32 µg/mL (≈ 51.7 µM) | MIC (gram negative bacteria; [7]): 32 µg/mL (≈ 51.7 µM) | MIC (gram negative bacteria; [8]): 64 µg/mL (≈ 103 µM)

CN(C)CCCNC(=O)c1cccc(-c2ccc(O)c3c2C[C@H]2C[C@H]4[C@H](N(C)C)C(O)=C(C(N)=O)C(=O)[C@@]4(O)C(O)=C2C3=O)c1 [Q]
pIC50 (CHO-K1 cells): < 3.86 | Median MIC's G+ S. aureus MRSA5 (gram positive bacteria; S. aureus MRSA5): 64 µg/mL | Median MIC's G+ S. aureus RN450 (gram positive bacteria; S. aureus RN450): 2 µg/mL | Median MIC's G+ S. pneumoniae 157E-Strep (gram positive bacteria; S. pneumoniae 157E-Strep): 1 µg/mL | Photo Toxicity UV Tox50 (3T3 fibroblast cells): >137.36 µM | Photo Toxicity Dark Tox50 (3T3 fibroblast cells): >137.36 µM | Median MIC's G− E. coli ATCC 25922 (gram negative bacteria; E. coli ATCC 25922): 64 µg/mL | Median MIC's G− E. coli D1 209 (gram negative bacteria; E. coli D1 209): 64 µg/mL | Median MIC's G− E. coli MG 1655 (gram negative bacteria; E. coli MG 1655): 64 µg/mL | Median MIC's G− P. aeruginosa K201 PAO6609 (gram negative bacteria; P. aeruginosa K201 PAO6609): 64 µg/mL

CC(=O)NCCNC(=O)c1cccc(-c2ccc(O)c3c2C[C@H]2C[C@H]4[C@H](N(C)C)C(O)=C(C(N)=O)C(=O)[C@@]4(O)C(O)=C2C3=O)c1 [S]
IC50 at 24 h (in vitro): > 13 µM | MIC (gram positive bacteria; [2]): 32 µg/mL (≈ 51.7 µM) | MIC (gram positive bacteria; [3]): 2 µg/mL (≈ 3.23 µM) | MIC (gram positive bacteria; [4]): 2 µg/mL (≈ 3.23 µM) | IC50 at 24 h [1]: > 13 µM | Photo Toxicity UV Tox50 (3T3 fibroblast cells): >129.75 µM | Photo Toxicity Dark Tox50 (3T3 fibroblast cells): >129.75 µM | MIC (gram negative bacteria; [5]): 64 µg/mL (≈ 103 µM) | MIC (gram negative bacteria; [6]): 64 µg/mL (≈ 103 µM) | MIC (gram negative bacteria; [7]): 64 µg/mL (≈ 103 µM) | MIC (gram negative bacteria; [8]): 64 µg/mL (≈ 103 µM)

CC(C)N(CCNC(=O)c1cccc(-c2ccc(O)c3c2C[C@H]2C[C@H]4[C@H](N(C)C)C(O)=C(C(N)=O)C(=O)[C@@]4(O)C(O)=C2C3=O)c1)C(C)C [T]
IC50 at 24 h (in vitro): 36.2 µM | MIC (gram positive bacteria; [2]): 4 µg/mL (≈ 6.05 µM) | MIC (gram positive bacteria; [3]): 0.13 µg/mL (≈ 0.197 µM) | MIC (gram positive bacteria; [4]): 0.06 µg/mL (≈ 0.0908 µM) | IC50 at 24 h [1]: > 41.4 µM | Photo Toxicity UV Tox50 (3T3 fibroblast cells): >133.57 µM | Photo Toxicity Dark Tox50 (3T3 fibroblast cells): >133.57 µM | MIC (gram negative bacteria; [5]): 8 µg/mL (≈ 12.1 µM) | MIC (gram negative bacteria; [6]): 16 µg/mL (≈ 24.2 µM) | MIC (gram negative bacteria; [7]): 4 µg/mL (≈ 6.05 µM) | MIC (gram negative bacteria; [8]): 64 µg/mL (≈ 96.9 µM)

CN(C)[C@@H]1C(O)=C(C(N)=O)C(=O)[C@@]2(O)C(O)=C3C(=O)c4c(O)ccc(-c5cccc(C(=O)NCCN6CCCCC6)c5)c4C[C@H]3C[C@@H]12 [U]
IC50 at 24 h (in vitro): > 41 µM | MIC (gram positive bacteria; [2]): 8 µg/mL (≈ 12.4 µM) | MIC (gram positive bacteria; [3]): 0.25 µg/mL (≈ 0.388 µM) | MIC (gram positive bacteria; [4]): 0.06 µg/mL (≈ 0.0931 µM) | IC50 at 24 h [1]: > 41 µM | Photo Toxicity UV Tox50 (3T3 fibroblast cells): >132.37 µM | Photo Toxicity Dark Tox50 (3T3 fibroblast cells): >132.37 µM | MIC (gram negative bacteria; [5]): 8 µg/mL (≈ 12.4 µM) | MIC (gram negative bacteria; [6]): 4 µg/mL (≈ 6.2 µM) | MIC (gram negative bacteria; [7]): 4 µg/mL (≈ 6.2 µM) | MIC (gram negative bacteria; [8]): 64 µg/mL (≈ 99.3 µM)

CN(C)CCNC(=O)c1cccc(-c2cc(N(C)C)c3c(c2O)C(=O)C2=C(O)[C@]4(O)C(=O)C(C(N)=O)=C(O)[C@@H](N(C)C)[C@@H]4C[C@@H]2C3)c1 [V, (4S,4aS,5aR,12aS)-4,7-Bis-dimethylamino-9-[3-(2-dimethylamino-ethylcarbamoyl)-phenyl]-3,10,12,12a-tetrahydroxy-1,11-dioxo-1,4,4a,5,5a,6,11,12a-octahydro-naphthacene-2-carboxylic acid amide]
IC50 at 24 h (in vitro): > 125 µM | MIC (gram positive bacteria; [2]): 64 µg/mL (≈ 98.8 µM) | MIC (gram positive bacteria; [3]): 16 µg/mL (≈ 24.7 µM) | MIC (gram positive bacteria; [4]): 32 µg/mL (≈ 49.4 µM) | IC50 at 24 h [1]: > 125 µM | Photo Toxicity UV Tox50 (3T3 fibroblast cells): >125.47 µM | Photo Toxicity Dark Tox50 (3T3 fibroblast cells): >125.47 µM | MIC (gram negative bacteria; [5]): 64 µg/mL (≈ 98.8 µM) | MIC (gram negative bacteria; [6]): 64 µg/mL (≈ 98.8 µM) | MIC (gram negative bacteria; [7]): 64 µg/mL (≈ 98.8 µM) | MIC (gram negative bacteria; [8]): 64 µg/mL (≈ 98.8 µM)

CN(C)[C@@H]1C(O)=C(C(N)=O)C(=O)[C@@]2(O)C(O)=C3C(=O)c4c(O)ccc(-c5cccc(C(=O)NCc6ccco6)c5)c4C[C@H]3C[C@@H]12 [Y]
IC50 at 24 h (in vitro): > 14.6 µM | MIC (gram positive bacteria; [2]): 1 µg/mL (≈ 1.63 µM) | MIC (gram positive bacteria; [3]): 0.06 µg/mL (≈ 0.0978 µM) | MIC (gram positive bacteria; [4]): 0.06 µg/mL (≈ 0.0978 µM) | IC50 at 24 h [1]: > 14.6 µM | Photo Toxicity UV Tox50 (3T3 fibroblast cells): >146.13 µM | Photo Toxicity Dark Tox50 (3T3 fibroblast cells): >146.13 µM | MIC (gram negative bacteria; [5]): 64 µg/mL (≈ 104 µM) | MIC (gram negative bacteria; [6]): 64 µg/mL (≈ 104 µM) | MIC (gram negative bacteria; [7]): 64 µg/mL (≈ 104 µM) | MIC (gram negative bacteria; [8]): 64 µg/mL (≈ 104 µM)

CN(C)CCNC(=O)c1cccc(-c2ccc(O)c3c2C[C@H]2C[C@H]4CC(O)=C(C(N)=O)C(=O)[C@@]4(O)C(O)=C2C3=O)c1 [Z, (4aS,5aR,12aS)-7-[3-(2-Dimethylamino-ethylcarbamoyl)-phenyl]-3,10,12,12a-tetrahydroxy-1,11-dioxo-1,4,4a,5,5a,6,11,12a-octahydro-naphthacene-2-carboxylic acid amide]
IC50 at 24 h (in vitro): > 15.9 µM | MIC (gram positive bacteria; [2]): 64 µg/mL (≈ 114 µM) | MIC (gram positive bacteria; [3]): 64 µg/mL (≈ 114 µM) | MIC (gram positive bacteria; [4]): 64 µg/mL (≈ 114 µM) | IC50 at 24 h [1]: > 15.9 µM | Photo Toxicity UV Tox50 (3T3 fibroblast cells): >158.85 µM | Photo Toxicity Dark Tox50 (3T3 fibroblast cells): >158.85 µM | MIC (gram negative bacteria; [5]): 64 µg/mL (≈ 114 µM) | MIC (gram negative bacteria; [6]): 64 µg/mL (≈ 114 µM) | MIC (gram negative bacteria; [7]): 64 µg/mL (≈ 114 µM) | MIC (gram negative bacteria; [8]): 64 µg/mL (≈ 114 µM)
